From patent publication US20090023884A1, “METHOD FOR STORAGE AND/OR TRANSPORT OF BISPHENOLACETONE AND METHOD FOR PRODUCING AROMATIC POLYCARBONATE” (priority 2007, published 2009)

Experiments:
Type in all cases: physicochemical
[1] = Solubility experiments: BPA dissolved in acetone or phenol in oil bath at set temperature; conditions: weight ratio BPA to solvent 7.5/2.5
Method: 0.6 gram of bisphenolacetone (BPA) powder was placed in a 10 ml graduated tube with a thread seal. Prior to the experiment, BPA flakes were crushed to said powder to ensure uniform packing density at the bottom of the tube. Then 0.2 gram of a solvent was added to the BPA. The solvent was either acetone (present invention) or phenol (comparative). Thus, the weight ratio of BPA to solvent was 7.5/2.5. The tube was then immersed in an oil bath at a certain temperature, and mixed up to full equilibrium. The foregoing was repeated except that the temperature of the oil bath was set at different values. Table 1 mentions the amounts of BPA dissolved in either acetone or phenol at temperatures ranging from 30 to 110° C. The amount of BPA dissolved was calculated from the loss of BPA from the solids layer at the bottom of the tube.

[2] = Stability experiments: 4-isopropenyl phenol (IPP) formation in BPA solutions by GC-MS; conditions: for IPP signal intensity where solvent is acetone / IPP signal intensity where solvent is phenol: BPA:solvent 6:4 by weight, GC-MS m/z=134 relative to untreated standard BPA sample
Method: BPA and a solvent were mixed to produce solutions (containing no solids) having a weight ratio of BPA to solvent of 6:4. The solvent was either acetone (present invention) or phenol (comparative). Where the solvent was acetone the solution was obtained at a temperature of 35° C. and then kept at that temperature. However, in view of the above solubility experiments, where the solvent was phenol the solution could only be obtained at a temperature of 120° C. and was then kept at that temperature. The solutions were heated for a certain time period (3, 7 or 14 days) at either 35° C. (acetone) or 120° C. (phenol). At the end of each time period, the amount of 4-isopropenyl phenol (IPP) was determined by means of GC-MS. Table 2 mentions the intensity of the GC-MS signal at m/z=134, which signal is characteristic for IPP, relative to a standard BPA sample that had not been subjected to said temperature treatment.

[3] = Extended storage of acetone/bisphenolacetone liquid mixture at storage temperature range; conditions: liquid mixture with acetone

Vol. % of BPA dissolved in acetone ([1]; 30 °C): 61 Vol. %
Vol. % of BPA dissolved in acetone ([1]; 60 °C): 72 Vol. %
Vol. % of BPA dissolved in phenol ([1]; 60 °C): 0 Vol. %
Vol. % of BPA dissolved in acetone ([1]; 75 °C): 72 Vol. %
Vol. % of BPA dissolved in phenol ([1]; 75 °C): 0 Vol. %
Vol. % of BPA dissolved in acetone ([1]; 90 °C): 74 Vol. %
Vol. % of BPA dissolved in phenol ([1]; 90 °C): 0 Vol. %
Vol. % of BPA dissolved in acetone ([1]; 110 °C): 74 Vol. %
Vol. % of BPA dissolved in phenol ([1]; 110 °C): 61 Vol. %
IPP signal intensity where solvent is acetone ([2]; 3 days at 35 °C): 0.1
IPP signal intensity where solvent is phenol ([2]; 3 days at 120 °C): 14.8
IPP signal intensity where solvent is acetone ([2]; 7 days at 35 °C): 0.0
IPP signal intensity where solvent is phenol ([2]; 7 days at 120 °C): 22.3
IPP signal intensity where solvent is acetone ([2]; 14 days at 35 °C): 0.0
IPP signal intensity where solvent is phenol ([2]; 14 days at 120 °C): 35.0
thermal degradation of BPA into IPP ([2]; solvent phenol, solution kept at 120 °C): thermally degraded into IPP
bisphenolacetone and solution properties upon extended storage [3]: remain unchanged
SMILES: CC(C)(c1ccc(O)cc1)c1ccc(O)cc1 [BPA, 2,2-bis(4-hydroxyphenyl)propane]
thermal degradation of BPA ([2]; solution in acetone, storage at 35 °C): does not result in any substantial thermal degradation
